Experimental data reported in patent publication US20260053834A1, “COVALENT MODIFIERS OF AKT1 AND USES THEREOF” (Terremoto Biosciences, Inc., priority 2023, published 2026).

Key:
[1] = test system: LAPC4 prostate cancer cells, which express the AKT1 E17K allele; assay: Antiproliferative effects in LAPC4 cells (CellTiter Glo, 72 h); format: cell-based; conditions: Homo sapiens, LAPC4, 72 h, read-out: LAPC4 proliferation IC50: GeoMean IC50
How it was run: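 Cells grown in IMDM with 12% FBS, seeded at 1,000 cells/well and treated with compound dilutions in DMSO for 72 h. Intracellular ATP read by luminescence. IC50 from a log(inhibitor) vs. response Hill fit.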

AKT1 WT = target: T1, AKT1 WT (Homo sapiens, UniProt P31749); assay: Live cell target engagement by NanoBRET competitive probe displacement, AKT1 WT; format: binding; conditions: transfected HEK293 cells, 2 h at 37° C., read-out: AKT1 WT IC50: GeoMean IC50
T1 construct: expressed in transfected cells; host or cells: HEK293
T1 sequence (P31749 whole entry): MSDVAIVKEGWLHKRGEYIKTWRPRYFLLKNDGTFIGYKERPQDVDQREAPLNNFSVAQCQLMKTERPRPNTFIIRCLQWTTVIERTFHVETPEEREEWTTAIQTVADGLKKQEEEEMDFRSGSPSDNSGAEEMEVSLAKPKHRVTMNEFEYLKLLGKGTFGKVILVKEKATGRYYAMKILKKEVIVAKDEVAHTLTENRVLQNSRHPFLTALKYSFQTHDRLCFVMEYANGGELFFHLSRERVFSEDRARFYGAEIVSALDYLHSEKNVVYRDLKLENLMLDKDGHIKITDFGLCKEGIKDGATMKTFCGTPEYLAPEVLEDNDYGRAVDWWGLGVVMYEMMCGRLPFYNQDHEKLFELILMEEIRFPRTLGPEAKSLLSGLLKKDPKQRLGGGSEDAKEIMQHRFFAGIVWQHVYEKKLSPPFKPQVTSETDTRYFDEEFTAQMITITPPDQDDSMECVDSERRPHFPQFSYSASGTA

AKT2 = target: T2, AKT2 (Homo sapiens, UniProt P31751); assay: Live cell target engagement by NanoBRET competitive probe displacement, AKT2; format: binding; conditions: transfected HEK293 cells, 2 h at 37° C., read-out: AKT2 IC50: GeoMean IC50
T2 construct: expressed in transfected cells; host or cells: HEK293
T2 sequence (P31751 whole entry): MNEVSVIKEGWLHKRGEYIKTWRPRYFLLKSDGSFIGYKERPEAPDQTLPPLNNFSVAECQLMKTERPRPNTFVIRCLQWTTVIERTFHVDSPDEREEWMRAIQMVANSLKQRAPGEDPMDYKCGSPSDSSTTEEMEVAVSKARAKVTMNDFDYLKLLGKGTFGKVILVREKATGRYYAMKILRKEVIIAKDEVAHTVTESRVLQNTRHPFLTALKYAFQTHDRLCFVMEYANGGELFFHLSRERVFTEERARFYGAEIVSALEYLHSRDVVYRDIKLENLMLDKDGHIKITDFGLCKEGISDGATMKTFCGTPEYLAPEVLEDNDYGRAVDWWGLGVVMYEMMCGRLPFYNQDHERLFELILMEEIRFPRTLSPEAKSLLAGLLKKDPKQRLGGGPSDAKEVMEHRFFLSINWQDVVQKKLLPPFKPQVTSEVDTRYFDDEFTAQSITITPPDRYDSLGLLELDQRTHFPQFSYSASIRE

AKT1 E17K = target: T3, AKT1 E17K (Homo sapiens, UniProt P31749, E17K); assay: Live cell target engagement by NanoBRET competitive probe displacement, AKT1 E17K; format: binding; conditions: transfected HEK293 cells, 2 h at 37° C., read-out: AKT1 E17K IC50: GeoMean IC50
T3 construct: expressed in transfected cells; host or cells: HEK293
T3 sequence (P31749 whole entry E17K): as the sequence (P31749 whole entry) above, with E17K counted along it

Row | Structure (SMILES) | IC50 [1] | IC50 (AKT1 WT) | IC50 (AKT2) | IC50 (AKT1 E17K)
1 | Nc1ncccc1-c1nc2ccc(-c3ccccc3)nc2n1-c1ccc2c(c1)CC[C@@H]2NC(=O)c1ccc(NC(=O)C2CC2)c(C=O)c1 [Example 47, N-[(1S)-5-[2-(2-aminopyridin-3-yl)-5-phenylimidazo[4,5-b]pyridin-3-yl]-2,3-dihydro-1H-inden-1-yl]-4-cyclopropaneamido-3-formylbenzamide] | 10 to 100 nM | 10 to 100 nM | 10 to 100 nM | 10 to 100 nM
2 | CS(=O)(=O)Nc1cc(F)c(C(=O)N[C@H]2CCc3cc(-n4c(-c5cccnc5N)nc5ccc(-n6cccn6)nc54)ccc32)cc1C=O [Example 217, N-[(1S)-5-[2-(2-aminopyridin-3-yl)-5-(pyrazol-1-yl)imidazo[4,5-b]pyridin-3-yl]-2,3-dihydro-1H-inden-1-yl]-2-fluoro-5-formyl-4-methanesulfonamidobenzamide] | ≥ 2000 nM | ≥ 2000 nM | ≥ 2000 nM | ≥ 2000 nM
3 | Nc1ncccc1-c1nc2ccc(-c3ccccc3)nc2n1-c1ccc2c(c1)CC[C@@H]2NC(=O)c1cc(F)c(O)c(C=O)c1 [Example 8, N-[(1S)-5-[2-(2-aminopyridin-3-yl)-5-phenylimidazo[4,5-b]pyridin-3-yl]-2,3-dihydro-1H-inden-1-yl]-3-fluoro-5-formyl-4-hydroxybenzamide] | 10 to 100 nM | 10 to 100 nM | 100 to 2000 nM | 10 to 100 nM
4 | CN(C)Cc1cc(C(=O)N[C@H]2CCc3cc(-n4c(-c5cccnc5N)nc5ccc(-n6cccn6)nc54)ccc32)cc(C=O)c1O [Example 192, N-[(1S)-5-[2-(2-aminopyridin-3-yl)-5-(pyrazol-1-yl)imidazo[4,5-b]pyridin-3-yl]-2,3-dihydro-1H-inden-1-yl]-3-[(dimethylamino)methyl]-5-formyl-4-hydroxybenzamide] | ≥ 2000 nM | 100 to 2000 nM | ≥ 2000 nM | 100 to 2000 nM
5 | Nc1ncccc1-c1nc2ccc(-c3nccs3)nc2n1-c1ccc2c(c1)CC[C@@H]2NC(=O)c1cc(C=O)c(O)c(F)c1F [Example 140, (S)—N-(5-(2-(2-aminopyridin-3-yl)-5-(thiazol-2-yl)-3H-imidazo[4,5-b]pyridin-3-yl)-2,3-dihydro-1H-inden-1-yl)-2,3-difluoro-5-formyl-4-hydroxybenzamide] | < 10 nM | < 10 nM | 10 to 100 nM | < 10 nM

More lines, now with the values ahead:

Row | IC50 [1] | IC50 (AKT1 WT) | IC50 (AKT2) | IC50 (AKT1 E17K) | Structure (SMILES)
6 | 100 to 2000 nM | 100 to 2000 nM | 100 to 2000 nM | 10 to 100 nM | N#Cc1cnn(-c2ccc3nc(-c4cccnc4N)n(-c4ccc5c(c4)CC[C@@H]5NC(=O)c4ccc(O)c(C=O)c4)c3n2)c1 [Example 90, N-[(1S)-5-[2-(2-aminopyridin-3-yl)-5-(4-cyanopyrazol-1-yl)imidazo[4,5-b]pyridin-3-yl]-2,3-dihydro-1H-inden-1-yl]-3-formyl-4-hydroxybenzamide]
7 | 10 to 100 nM | 10 to 100 nM | 100 to 2000 nM | 10 to 100 nM | Cn1cc(-c2ccc3nc(-c4cccnc4N)n(-c4ccc5c(c4)CC[C@@H]5NC(=O)c4ccc(O)c(C=O)c4)c3n2)cn1 [Example 28, (S)—N-(5-(2-(2-aminopyridin-3-yl)-5-(1-methyl-1H-pyrazol-4-yl)-3H-imidazo[4,5-b]pyridin-3-yl)-2,3-dihydro-1H-inden-1-yl)-3-formyl-4-hydroxybenzamide]
8 | 100 to 2000 nM | 10 to 100 nM | 100 to 2000 nM | 10 to 100 nM | Nc1ncccc1-c1nc2ccc(-n3cccn3)nc2n1-c1ccc2c(c1)CC[C@@H]2NC(=O)c1cc(F)c(O)c(C=O)c1 [Example 81, N-[(1S)-5-[2-(2-aminopyridin-3-yl)-5-(pyrazol-1-yl)imidazo[4,5-b]pyridin-3-yl]-2,3-dihydro-1H-inden-1-yl]-3-fluoro-5-formyl-4-hydroxybenzamide]
